Like-named read-outs stand apart in the source and are kept apart here.
Biological target: T1, hT2R54 (Homo sapiens, UniProt P59534)
T1 construct: expressed in transfected cells; it overexpresses a promiscuous G protein
T1 sequence (P59534 1-338): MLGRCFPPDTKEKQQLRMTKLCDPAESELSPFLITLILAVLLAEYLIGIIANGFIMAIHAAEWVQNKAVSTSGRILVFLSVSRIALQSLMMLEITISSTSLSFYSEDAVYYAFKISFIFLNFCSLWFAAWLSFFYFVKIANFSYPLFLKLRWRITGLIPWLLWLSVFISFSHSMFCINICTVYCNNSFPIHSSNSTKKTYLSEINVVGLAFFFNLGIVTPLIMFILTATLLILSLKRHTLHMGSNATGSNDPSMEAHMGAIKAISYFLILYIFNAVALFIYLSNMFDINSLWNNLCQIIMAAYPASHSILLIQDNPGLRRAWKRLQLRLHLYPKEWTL
Assay: Cell-based assay for measuring hT2R54 inhibition (FLIPR calcium, Fluo4AM, acetaminophen as bitter agonist)
Details: cells stably expressing hT2R54 and a promiscuous G protein, read-out: hT2R54 IC50
Procedure: Cells stably expressing hT2R54 and a promiscuous G protein were seeded in 384 well plates 24 hours prior to the experiment. Cells were loaded with the calcium indicator Fluo4AM, washed and loaded in a FLIPR instrument with a compound plate containing increasing doses of acetaminophen in quadruplicates and prepared at 2× of final concentration. Baseline was recorded for 10 seconds, then 25 μl of […] was added onto 25 μl of cells and resulting changes in fluorescence were monitored over an additional 3 minutes. The host cell line overexpressing the G protein but not hT2R54 was treated as described above.
The ability of a test compound that blocks bitter taste elicited through hT2R54 was measured in this assay, as follows. Cells stably expressing hT2R54 and a promiscuous G protein were seeded in 384 well plates 24 hours prior to the experiment. Cells were loaded with the calcium indicator Fluo4AM, washed and loaded in a FLIPR instrument with a compound plate containing increasing doses of acetaminophen in buffer and increasing doses of acetaminophen with depicted fixed concentrations of Cmpd 109 (Table 4). Base line was recorded for 10 seconds, then 25 μl of compound and compound mixtures were added onto 25 μl of cells and resulting changes in fluorescence were monitored over an additional 3 minutes. The concentration of test compound that blocks half of the response when the bitter compound alone is present is presented as the EC50 or IC50 value.
In the examples above, the EC50 of compounds for blocking bitter taste elicited through T2R54 was measured in the same manner.

| SMILES | IC50 (Table 2) [nM] | other results |
| --- | --- | --- |
| CC(=O)c1cc2c(cc1NC(=O)CN1CCN(C(=O)Cc3ccccc3F)CC1)OCO2 [compound 55] | 70 |  |
| CC(=O)c1cc2c(cc1NC(=O)CN1CCN(C(=O)Cc3cccnc3)CC1)OCO2 [compound 56] | 80 |  |
| CC(=O)c1cc2c(cc1NC(=O)CN1CCN(C(=O)Cc3cccc(O)c3)CC1)OCO2 [compound 57] | 100 |  |
| COc1cccc(CC(=O)N2CCN(CC(=O)Nc3cc4c(cc3C(C)=O)OCO4)CC2)c1 [compound 58] | 60 |  |
| CC(=O)c1cc2c(cc1NC(=O)CN1CCN(C(=O)Cc3cccc(F)c3)CC1)OCO2 [compound 59] | 200 |  |
| CC(=O)c1cc2c(cc1NC(=O)CN1CCN(C(=O)Cc3ccncc3)CC1)OCO2 [compound 60] | 80 |  |
| CC(=O)c1cc2c(cc1NC(=O)CN1CCN(C(=O)Cc3ccc(O)cc3)CC1)OCO2 [compound 61] | 50 |  |
| COc1ccc(CC(=O)N2CCN(CC(=O)Nc3cc4c(cc3C(C)=O)OCO4)CC2)cc1 [compound 62] | 200 |  |
| CC(=O)c1cc2c(cc1NC(=O)CN1CCN(C(=O)Cc3ccc(F)cc3)CC1)OCO2 [compound 63] | 400 |  |
| CC(=O)c1cc2c(cc1NC(=O)CN1CCN(C(=O)Cc3ccco3)CC1)OCO2 [compound 64] | 100 |  |
| CC(=O)c1cc2c(cc1NC(=O)CN1CCN(C(=O)Cc3cccs3)CC1)OCO2 [compound 65] | 30 |  |
| CC(=O)c1cc2c(cc1NC(=O)CN1CCN(C(=O)c3cnn(C)c3)CC1)OCO2 [compound 66] | 17 |  |
| CC(=O)c1cc2c(cc1NC(=O)CN1CCN(C(=O)c3ccc(C)s3)CC1)OCO2 [compound 67] | 15 |  |
| CC(=O)c1cc2c(cc1NC(=O)CN1CCN(C(=O)c3sccc3C)CC1)OCO2 [compound 68] | 30 |  |
| CC(=O)c1cc2c(cc1NC(=O)CN1CCN(C(=O)c3c(C)noc3C)CC1)OCO2 [compound 69] | 40 |  |
| CC(=O)c1cc2c(cc1NC(=O)CN1CCN(C(=O)c3ccon3)CC1)OCO2 [compound 70] | 20 |  |
| CC(=O)c1cc2c(cc1NC(=O)CN1CCN(C(=O)c3ccn(C)n3)CC1)OCO2 [compound 71] | 50 |  |
| CC(=O)c1cc2c(cc1NC(=O)CN1CCN(C(=O)c3cnco3)CC1)OCO2 [compound 72] | 60 |  |
| CC(=O)c1cc2c(cc1NC(=O)CN1CCN(C(=O)c3cc(C)cs3)CC1)OCO2 [compound 73] | 80 |  |
| CC(=O)c1cc2c(cc1NC(=O)CN1CCN(C(=O)c3cn(C)nc3C)CC1)OCO2 [compound 74] | 200 |  |
| CC(=O)c1cc2c(cc1NC(=O)CN1CCN(C(=O)c3cnon3)CC1)OCO2 [compound 75] | 100 |  |
| CC(=O)c1cc2c(cc1NC(=O)CN1CCN(C(=O)c3nc(C)oc3C)CC1)OCO2 [compound 76] | 70 |  |

| SMILES | IC50 (Table 2) [nM] | other results |
| --- | --- | --- |
| CC(=O)c1cc2c(cc1NC(=O)CN1CCN(C(=O)c3ccn(C)c3)CC1)OCO2 [compound 77] | 30 |  |
| CC(=O)c1cc2c(cc1NC(=O)CN1CCN(C(=O)c3cn(C)nn3)CC1)OCO2 [compound 78] | 30 |  |
| CC(=O)c1cc2c(cc1NC(=O)CN1CCN(C(=O)c3ccoc3)CC1)OCO2 [compound 79] | 30 |  |
| COc1ccccc1CC(=O)N1CCN(CC(=O)Nc2cc3c(cc2OC)OCO3)CC1 [compound 99] | 600 |  |
| COc1cc2c(cc1NC(=O)CN1CCN(C(=O)Cc3ccccc3O)CC1)OCO2 [compound 100] | 430 |  |
| CC(=O)c1cc2c(cc1NC(=O)CN1CCN(Cc3ccccc3)CC1)OCO2 [compound 101, N-(6-acetylbenzo[d][1,3]dioxol-5-yl)-2-(4-benzylpiperazin-1-yl)acetamide] |  | IC50 (Table 3): 1060 nM |
| CC(=O)c1cc2c(cc1NC(=O)CN1CCN(Cc3ccccc3F)CC1)OCO2 [compound 102] |  | IC50 (Table 3): 500 nM |
| CC(=O)c1cc2c(cc1NC(=O)CN1CCN(Cc3cccc(F)c3)CC1)OCO2 [compound 103] |  | IC50 (Table 3): 500 nM |
| CC(=O)c1cc2c(cc1NC(=O)CN1CCN(Cc3ccc(F)cc3)CC1)OCO2 [compound 104] |  | IC50 (Table 3): 600 nM |
| COc1ccc(F)cc1CN1CCN(CC(=O)Nc2cc3c(cc2C(C)=O)OCO3)CC1 [compound 105] |  | IC50 (Table 3): 90 nM |
| CC(=O)c1cc2c(cc1NC(=O)CN1CCN(Cc3ccccn3)CC1)OCO2 [compound 106] |  | IC50 (Table 3): 300 nM |
| CC(=O)c1cc2c(cc1NC(=O)CN1CCN(Cc3nc4ccccc4s3)CC1)OCO2 [compound 107] |  | IC50 (Table 3): 4180 nM |
| CC(=O)c1cc2c(cc1NC(=O)CN1CCN(C(C(N)=O)c3ccccc3)CC1)OCO2 (centres unmarked) [compound 108] |  | IC50 (Table 3): 1760 nM |
| CC(=O)c1cc2c(cc1NC(=O)CN1CCOCC1)OCO2 [compound 109, N-(6-acetylbenzo[d][1,3]dioxol-5-yl)-2-morpholinoacetamide] |  | IC50 (Table 4): 588 nM |
| CC(=O)c1cc2c(cc1NC(=O)C(C)N1CCOCC1)OCO2 (centres unmarked) [compound 110, N-(6-Acetylbenzo[d][1,3]dioxol-5-yl)-2-morpholinopropanamide] |  | IC50 (Table 4): 359 nM |
| CC(=O)c1cc2c(cc1NC(=O)C(C)(C)N1CCOCC1)OCO2 [compound 111, N-(6-Acetylbenzo[d][1,3]dioxol-5-yl)-2-methyl-2-morpholinopropanamide] |  | IC50 (Table 4): 207 nM |
| CCOC(=O)[C@@H]1CCCN1CC(=O)Nc1cc2c(cc1C(C)=O)OCO2 [compound 112, Ethyl (2-((6-acetylbenzo[d][1,3]dioxol-5-yl)amino)-2-oxoethyl)-L-prolinate] |  | IC50 (Table 4): 206 nM |
| CCOC(=O)C1CCCCN1CC(=O)Nc1cc2c(cc1C(C)=O)OCO2 (centres unmarked) [compound 113, Ethyl 1-(2-((6-Acetylbenzo[d][1,3]dioxol-5-yl)amino)-2-oxoethyl)piperidine-2-carboxylate] |  | IC50 (Table 4): 78 nM |
| CCOC(=O)C1CCN(CC(=O)Nc2cc3c(cc2C(C)=O)OCO3)C1 (centres unmarked) [compound 114, Ethyl 1-(2-((6-acetylbenzo[d][1,3]dioxol-5-yl)amino)-2-oxoethyl)pyrrolidine-3-carboxylate] |  | IC50 (Table 4): 61 nM |
| CCOC(=O)C1CCCN(CC(=O)Nc2cc3c(cc2C(C)=O)OCO3)C1 (centres unmarked) [compound 115, Ethyl 1-(2-((6-Acetylbenzo[d][1,3]dioxol-5-yl)amino)-2-oxoethyl)piperidine-3-carboxylate] |  | IC50 (Table 4): 9 nM |
| CCOC(=O)C1CCN(CC(=O)Nc2cc3c(cc2C(C)=O)OCO3)CC1 [compound 116, Ethyl 1-(2-((6-acetylbenzo[d][1,3]dioxol-5-yl)amino)-2-oxoethyl)piperidine-4-carboxylate] |  | IC50 (Table 4): 103 nM |

More lines, main results first:

| IC50 (Table 2) [nM] | SMILES | other results |
| --- | --- | --- |
| 500 | CC(=O)c1cc2c(cc1NC(=O)CN1CCN(C(=O)c3cc4ccccc4o3)CC1)OCO2 [compound 80] |  |
| 4 | CC(=O)c1cc2c(cc1NC(=O)CN1CCN(C(=O)c3ccc(C)o3)CC1)OCO2 [compound 81] |  |
| 540 | CCCCC(=O)N1CCN(CC(=O)Nc2cc3c(cc2OC)OCO3)CC1 [compound 82] |  |
| 520 | CCOC(=O)N1CCN(CC(=O)Nc2cc3c(cc2OC)OCO3)CC1 [compound 83] |  |
| 240 | CCCOC(=O)N1CCN(CC(=O)Nc2cc3c(cc2OC)OCO3)CC1 [compound 84] |  |
| 1160 | COc1cc2c(cc1NC(=O)CN1CCN(C(=O)C3CCCO3)CC1)OCO2 (centres unmarked) [compound 85] |  |
| 1140 | COc1cc2c(cc1NC(=O)CN1CCN(C(=O)C3CCCCO3)CC1)OCO2 (centres unmarked) [compound 86] |  |
| 1040 | COc1cc2c(cc1NC(=O)CN1CCN(C(=O)CC3CCOCC3)CC1)OCO2 [compound 87] |  |
| 130 | COc1cc2c(cc1NC(=O)CN1CCN(C(=O)c3ccco3)CC1)OCO2 [compound 88] |  |
| 80 | COc1cc2c(cc1NC(=O)CN1CCN(C(=O)c3ccc(C)o3)CC1)OCO2 [compound 89] |  |
| 200 | COc1cc2c(cc1NC(=O)CN1CCN(C(=O)c3ccccc3F)CC1)OCO2 [compound 90] |  |
| 280 | COc1cc2c(cc1NC(=O)CN1CCN(C(=O)c3ccccc3OC)CC1)OCO2 [compound 91] |  |
| 440 | COc1cc2c(cc1NC(=O)CN1CCN(C(=O)c3ccccc3O)CC1)OCO2 [compound 92] |  |
| 430 | COc1cc2c(cc1NC(=O)CN1CCN(C(=O)c3cccc(O)c3)CC1)OCO2 [compound 93] |  |
| 1510 | COc1cc2c(cc1NC(=O)CN1CCN(C(=O)c3ccccn3)CC1)OCO2 [compound 94] |  |
| 1340 | COc1cc2c(cc1NC(=O)CN1CCN(C(=O)c3cccnc3)CC1)OCO2 [compound 95] |  |
| 1440 | COc1cc2c(cc1NC(=O)CN1CCN(C(=O)c3ccncc3)CC1)OCO2 [compound 96] |  |
| < 1000 | COc1cc2c(cc1NC(=O)CN1CCN(C(=O)c3ccc(F)cc3)CC1)OCO2 [compound 97] |  |
| 1080 | COc1cc2c(cc1NC(=O)CN1CCN(C(=O)c3ccn(C)n3)CC1)OCO2 [compound 98] |  |

— US12295396B2, “Antagonists of T2R54 and compositions and uses thereof” (Firmenich Incorporated, priority 2018, dated 2025)
